Results published in ChEMBL document CHEMBL5329194, “Design, Synthesis, and Evaluation of 18F-Labeling CYP1B1 PET Tracer Based on 2-Phenylquinazolin” (Bioorg Med Chem Lett, 2023).
pIC50: −log10 of the molar value.

Legend:
[1] = Drug uptake in human MCF7 cells measured after 30 mins; type: ADME, cell-based; conditions: mcf7, 0.5 h
[2] = target: T1, Cytochrome P450 1A2 (Homo sapiens, UniProt P05177); assay: Inhibition of CYP1A2 (unknown origin); type: ADME
T1 sequence (P05177 whole entry): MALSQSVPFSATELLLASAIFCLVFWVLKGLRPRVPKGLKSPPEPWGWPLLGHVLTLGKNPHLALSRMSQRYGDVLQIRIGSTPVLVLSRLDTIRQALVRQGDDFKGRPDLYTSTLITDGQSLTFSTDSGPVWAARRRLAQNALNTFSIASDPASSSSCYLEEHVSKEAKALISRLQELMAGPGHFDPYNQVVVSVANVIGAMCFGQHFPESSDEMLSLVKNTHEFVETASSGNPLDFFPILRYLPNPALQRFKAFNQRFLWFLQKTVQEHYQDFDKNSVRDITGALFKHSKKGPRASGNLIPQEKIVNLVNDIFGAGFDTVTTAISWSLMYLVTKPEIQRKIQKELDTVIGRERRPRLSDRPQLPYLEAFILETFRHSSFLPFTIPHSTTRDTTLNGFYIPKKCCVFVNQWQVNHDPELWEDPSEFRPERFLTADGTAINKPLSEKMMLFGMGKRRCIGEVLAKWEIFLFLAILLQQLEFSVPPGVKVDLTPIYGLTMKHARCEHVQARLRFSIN

[3] = target: T2, Cytochrome P450 1B1 (Homo sapiens, UniProt Q16678); assay: Inhibition of CYP1B1 (unknown origin) by EROD assay; type: ADME
T2 sequence (Q16678 whole entry): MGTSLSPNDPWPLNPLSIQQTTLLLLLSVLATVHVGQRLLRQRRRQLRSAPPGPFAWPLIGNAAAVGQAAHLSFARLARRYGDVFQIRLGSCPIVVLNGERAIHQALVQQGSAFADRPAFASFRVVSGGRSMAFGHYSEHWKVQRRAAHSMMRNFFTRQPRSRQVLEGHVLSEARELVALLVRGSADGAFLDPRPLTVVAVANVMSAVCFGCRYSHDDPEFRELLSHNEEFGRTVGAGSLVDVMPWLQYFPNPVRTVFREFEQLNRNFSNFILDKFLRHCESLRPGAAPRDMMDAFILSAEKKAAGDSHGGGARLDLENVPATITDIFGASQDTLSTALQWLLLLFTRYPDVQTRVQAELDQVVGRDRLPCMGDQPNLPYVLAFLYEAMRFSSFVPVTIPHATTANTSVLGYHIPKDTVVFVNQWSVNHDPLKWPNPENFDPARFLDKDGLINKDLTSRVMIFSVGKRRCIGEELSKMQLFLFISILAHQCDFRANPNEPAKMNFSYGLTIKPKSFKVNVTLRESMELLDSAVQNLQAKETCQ

[4] = target: T3, Cytochrome P450 1A1 (Homo sapiens, UniProt P04798); assay: Inhibition of CYP1A1 (unknown origin); type: ADME
T3 sequence (P04798 whole entry): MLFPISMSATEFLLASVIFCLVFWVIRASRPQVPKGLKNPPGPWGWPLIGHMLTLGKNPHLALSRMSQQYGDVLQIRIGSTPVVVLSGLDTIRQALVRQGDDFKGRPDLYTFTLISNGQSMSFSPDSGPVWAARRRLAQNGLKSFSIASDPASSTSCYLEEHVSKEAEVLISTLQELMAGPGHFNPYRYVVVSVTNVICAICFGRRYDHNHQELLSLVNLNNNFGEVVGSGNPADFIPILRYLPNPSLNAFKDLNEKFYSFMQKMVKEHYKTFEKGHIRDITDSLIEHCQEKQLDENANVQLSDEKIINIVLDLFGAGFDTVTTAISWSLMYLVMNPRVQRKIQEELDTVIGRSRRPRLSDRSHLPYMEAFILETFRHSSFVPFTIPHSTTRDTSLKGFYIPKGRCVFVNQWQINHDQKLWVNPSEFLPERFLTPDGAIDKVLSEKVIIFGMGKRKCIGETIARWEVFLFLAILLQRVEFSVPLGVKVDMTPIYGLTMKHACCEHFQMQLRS

[5] = system: CYP1A1 versus CYP1B1; assay: Selectivity ratio of IC50 for inhibition of CYP1A1 (unknown origin) to IC50 for inhibition of CYP1B1 (unknown origin); type: ADME; conditions: human; read-out: Ratio IC50
[6] = system: CYP1A2 versus CYP1B1; assay: Selectivity ratio of IC50 for inhibition of CYP1A2 (unknown origin) to IC50 for inhibition of CYP1B1 (unknown origin); type: ADME; conditions: human; read-out: Ratio IC50
[7] = Drug uptake in human HCT-15 cells measured after 30 mins; type: ADME, cell-based; conditions: hct-15, 0.5 h

- Drug uptake [1]: 21.56%
- pIC50 [2]: < 6.00
- pIC50 [3]: 7.32
- pIC50 [4]: < 6.00
- Drug uptake [7]: 25.61%
Compound: FCCOCCOCCOc1nc(-c2ccc(Br)cc2)nc2ccccc12
- selectivity ratio [5]: > 20.7
- selectivity ratio [6]: > 20.7
